Measurements from ChEMBL document CHEMBL1133229, “Parallel synthesis and evaluation of N-(1-phenylethyl)-5-phenyl-imidazole-2-amines as Na+/K+ ATPase inhibitors” (Bioorg Med Chem Lett, 2000).

Biological target: Sodium/potassium-transporting ATPase
Assay: Inhibition of myocardial Na+/K+ ATPase from canine cardiac sarcolemma
Assay type: protein-complex assay, Canis lupus familiaris
Conditions: not given

Row | Structure (SMILES) | IC50 [µM]
1 | CC(Nc1ncc(-c2cc(C(F)(F)F)cc(C(F)(F)F)c2)n1C)c1ccccc1 (centres undefined) | 88
2 | CCC(Nc1ncc(-c2ccccc2)n1C)c1ccc(Cl)cc1 (centres undefined) | 0.8
3 | C[C@H](Nc1ncc(-c2ccccc2)n1C)c1ccccc1 | 61
4 | CC(Nc1ncc(-c2ccccc2)n1C)c1ccc(F)cc1 (centres undefined) | 10
5 | CC(Nc1ncc(-c2cccc(-c3ccccc3)c2)n1C)c1ccccc1 (centres undefined) | 14
6 | CC(Nc1ncc(-c2ccc3ccccc3c2)n1C)c1ccccc1 (centres undefined) | 2.1

Results, then the molecule that gave them:

Row | IC50 [µM] | Structure (SMILES)
7 | 10 | C[C@@H](Nc1ncc(-c2ccccc2)n1C)c1ccccc1
8 | 77 | CCC(C)C(Nc1ncc(-c2ccccc2)n1C)c1ccccc1 (centres undefined)
9 | 1.3 | CC(Nc1ncc(-c2ccccc2)n1C)c1ccc(Cl)cc1 (centres undefined)
10 | 99 | COc1ccc(-c2cnc(NC(C)c3ccccc3)n2C)cc1OC (centres undefined)
11 | 38 | CC(Nc1ncc(-c2ccccc2)n1C)c1ccccc1 (centres undefined)
12 | 52 | CC(Nc1ncc(-c2cc(F)cc(F)c2)n1C)c1ccccc1 (centres undefined)
13 | 33 | CC(Nc1ncc(-c2ccc(OC(F)(F)F)cc2)n1C)c1ccccc1 (centres undefined)

Species on record: Cavia porcellus
Assay: Compound was evaluated for inotropic activity in guinea pig papillary muscle
Assay type: functional
Conditions: Muscle tissue

Row | EC50 [µM] | Structure (SMILES)
14 | 1 | COc1cc2c(cc1OC)-c1cnc(NCc3ccccc3)n1CC2
